# “And” between values parts separate entries of the source, which are not always exact repeats. Equal values may be shown once.
# What was measured:
# Type in all cases: functional, Homo sapiens
# TERT-RPE1 = experiment: (§1) Here: values are normalized to the negative (DMSO; defined as 0% autophagy induction) and positive (250nM Torin1; mTOR inhibitor; defined as maximal inducer of autophagy = 100%) control compounds and represented as % of autophagy induction. […] The impact of autophagy induction on cells is complex and depends on the affected target. As such, the magnitude of a phenotype may not be equally mirrored in the %-value of autophagy induction and vice versa. The dynamics of the induction may indicate the mode of activation: e.g. activation via phosphorylation or a signaling cascade may occur fast, while activation via transcription factors may take considerably longer. […] Of note, treatment concentrations may be sub-optimal for specific compounds, leading to false negative annotations.; settings: Culturing Media DMEM/F12 (1:1), 1 % Penicillin/Streptomycin, 10% Fetal bovin serum Add-On: No, Screening Media Control DMEM/F12 (1:1), Screening Media Samples DMEM/F12 (1:1)
# U2OS [1] = experiment: as §1; settings: Culturing Media DMEM, 1 % Penicillin/Streptomycin, 10% Fetal bovin serum Add-On: No, Screening Media Control DMEM, Screening Media Samples DMEM
# U2OS [2] = experiment: as §1; settings: Culturing Media DMEM, 1 % Penicillin/Streptomycin, 10% Fetal bovin serum Add-On: No, Screening Media Control DMEM, Screening Media Samples DMEM; remark: listed apart in the source
# [3] = Compound Concentration 0.5 uM, Timepoint 12 hours, 12 h, 0.5 µM
# [4] = Compound Concentration 0.5 uM, Timepoint 24 hours, 24 h, 0.5 µM
# [5] = Compound Concentration 0.5 uM, Timepoint 36 hours, 36 h, 0.5 µM
# [6] = Compound Concentration 0.5 uM, Timepoint 60 hours, 60 h, 0.5 µM
# [7] = Compound Concentration 2 uM, Timepoint 24 hours, 24 h, 2 µM
# [8] = Compound Concentration 2 uM, Timepoint 36 hours, 36 h, 2 µM
# [9] = Compound Concentration 2 uM, Timepoint 60 hours, 60 h, 2 µM
# [10] = Compound Concentration 10 uM, Timepoint 12 hours, 12 h, 10 µM
# [11] = Compound Concentration 10 uM, Timepoint 24 hours, 24 h, 10 µM
# [12] = Compound Concentration 10 uM, Timepoint 36 hours, 36 h, 10 µM
# [13] = Compound Concentration 10 uM, Timepoint 60 hours, 60 h, 10 µM
# [14] = Compound Concentration 0.5 uM, Timepoint 12 hours
# [15] = Compound Concentration 0.5 uM, Timepoint 24 hours
# [16] = Compound Concentration 0.5 uM, Timepoint 36 hours
# [17] = Compound Concentration 0.5 uM, Timepoint 60 hours
# [18] = Compound Concentration 2 uM, Timepoint 12 hours
# [19] = Compound Concentration 2 uM, Timepoint 24 hours
# [20] = Compound Concentration 2 uM, Timepoint 36 hours
# [21] = Compound Concentration 2 uM, Timepoint 60 hours
# [22] = Compound Concentration 10 uM, Timepoint 12 hours
# [23] = Compound Concentration 10 uM, Timepoint 24 hours
# [24] = Compound Concentration 10 uM, Timepoint 36 hours
# [25] = Compound Concentration 10 uM, Timepoint 60 hours
# [26] = Compound Concentration 2 uM, Timepoint 12 hours, 12 h, 2 µM
Compound,autophagy induction (TERT-RPE1; [3]),autophagy induction (TERT-RPE1; [4]),autophagy induction (TERT-RPE1; [5]),autophagy induction (TERT-RPE1; [6]),autophagy induction (TERT-RPE1; [7]),autophagy induction (TERT-RPE1; [8]),autophagy induction (TERT-RPE1; [9]),autophagy induction (TERT-RPE1; [10]),autophagy induction (TERT-RPE1; [11]),autophagy induction (TERT-RPE1; [12]),autophagy induction (TERT-RPE1; [13]),autophagy induction (U2OS [1]; [14]),autophagy induction (U2OS [1]; [15]),autophagy induction (U2OS [1]; [16]),autophagy induction (U2OS [1]; [17]),autophagy induction (U2OS [1]; [18]),autophagy induction (U2OS [1]; [19]),autophagy induction (U2OS [1]; [20]),autophagy induction (U2OS [1]; [21]),autophagy induction (U2OS [1]; [22]),further results
CCCCCCCCCCCCCCCCOC[C@H](COP(=O)([O-])OCC[N+](C)(C)C)OC(C)=O,-0.9527% and 1.704%,-3.436% and -0.1454%,-3.259% and 2.221%,-5.529% and 3.615%,-0.2119% and 13.6511%,-1.573% and 9.518%,-2.541% and 14.6368%,8.2187% and 7.039%,4.065% and 6.451%,4.665% and 7.035%,6.217% and 11.8263%,2.963%,0.1782%,2280.79%,-1.799%,-5.387%,-3.326%,2231.79%,-1.895%,-2.708%,autophagy induction (U2OS [1]; [23]): -1.793%; autophagy induction (U2OS [1]; [24]): 678.152%; autophagy induction (U2OS [1]; [25]): 1.655%; autophagy induction (U2OS [2]; [14]): 1.863%; autophagy induction (U2OS [2]; [15]): 3.665%; autophagy induction (U2OS [2]; [16]): -3.033%; autophagy induction (U2OS [2]; [17]): -9.658%; autophagy induction (U2OS [2]; [18]): 2.298%; autophagy induction (U2OS [2]; [19]): -2.882%; autophagy induction (U2OS [2]; [20]): -2.921%; autophagy induction (U2OS [2]; [21]): -2.8%; autophagy induction (U2OS [2]; [22]): 10.6263%; autophagy induction (U2OS [2]; [23]): 0.8651%; autophagy induction (U2OS [2]; [24]): 6.18%; autophagy induction (U2OS [2]; [25]): 5.674%
FC(F)(F)c1c(N2CCC(c3ccccc3)CC2)ccn2c(CC3CC3)nnc12,0.8285% and 1.833%,-1.6355% and 0.4371%,-2.42% and 3.239%,-6.544% and 5.154%,-0.3973% and 6.29%,-4.125% and 5.099%,-2.871% and 7.601%,0.02052% and 7.4327%,-1.251% and 7.807%,-2.896% and 10.4333%,-4.9464% and 19.419%,-3.682%,-3.457%,1345.14%,-2.1724%,-2.443%,-4.21%,-60.9304%,-2.478%,1.237%,autophagy induction (TERT-RPE1; [26]): -0.736% and 6.309%; autophagy induction (U2OS [1]; [23]): -0.8788%; autophagy induction (U2OS [1]; [24]): -59.5065%; autophagy induction (U2OS [1]; [25]): -0.8045%; autophagy induction (U2OS [2]; [14]): 6.212%; autophagy induction (U2OS [2]; [15]): 3.779%; autophagy induction (U2OS [2]; [16]): -3.086%; autophagy induction (U2OS [2]; [17]): -2.905%; autophagy induction (U2OS [2]; [18]): -8.584%; autophagy induction (U2OS [2]; [19]): -5.642%; autophagy induction (U2OS [2]; [20]): -3.294%; autophagy induction (U2OS [2]; [21]): -4.323%; autophagy induction (U2OS [2]; [22]): -9.128%; autophagy induction (U2OS [2]; [23]): -9.508%; autophagy induction (U2OS [2]; [24]): -1.15%; autophagy induction (U2OS [2]; [25]): -1.079%
CCCCC#Cc1nc(NC)c2ncn([C@@H]3O[C@H](CO)[C@@H](O)[C@H]3O)c2n1,-2.336% and -0.4442%,-5.778% and -2.388%,-6.915% and -5.4%,-6.339% and -4.703%,3.405% and -0.3092%,0.8288% and 0.6571%,0.7882% and 0.00413%,9.462% and -4.43%,9.8196% and -3.782%,10.3694% and -2.886%,10.0597% and -2.862%,7.971%,2.814%,-58.1103%,-0.9818%,3.199%,-2.198%,-60.437%,-1.323%,0.2414%,autophagy induction (TERT-RPE1; [26]): 2.252% and 1.572%; autophagy induction (U2OS [1]; [23]): -3.3271%; autophagy induction (U2OS [1]; [24]): -60.2602%; autophagy induction (U2OS [1]; [25]): -0.5763%; autophagy induction (U2OS [2]; [14]): 1.872%; autophagy induction (U2OS [2]; [15]): -1.476%; autophagy induction (U2OS [2]; [16]): -3.077%; autophagy induction (U2OS [2]; [17]): -6.595%; autophagy induction (U2OS [2]; [18]): -4.8354%; autophagy induction (U2OS [2]; [19]): -5.442%; autophagy induction (U2OS [2]; [20]): -4.18%; autophagy induction (U2OS [2]; [21]): -14.3215%; autophagy induction (U2OS [2]; [22]): -0.5241%; autophagy induction (U2OS [2]; [23]): -0.2798%; autophagy induction (U2OS [2]; [24]): -5.149%; autophagy induction (U2OS [2]; [25]): -3.023%

# From ChEMBL document CHEMBL5724696, “Autophagy assay results for EUbOPEN Chemogenomics Library” (2024)
